Patent US10508109B2 (priority 2015, dated 2019)
Structures can show the parent of a compound that is named as a salt. Where two headings read alike, the source gives them in different places.

Experiments:
A549 = test: Cell-based assay, anti-proliferative activity (Cell Counting Kit-8, 72 hours); details: Homo sapiens, read-out: IC50 (μM) A549
Description: 100 micro-L of cell suspension was seeded onto 96-well microtiter plate (ViewPlate-96FTC, PerkinElmer). […] Cellular growth was determined using Cell Counting Kit-8 (DOJINDO) at 72 hours after the exposure of the candidate inhibitors. […] Accurate IC50 values were calculated as described previously.

HFL1 = test: as above; details: Homo sapiens, read-out: IC50 (μM) HFL1
Description: (§1) Active candidate inhibitors against SUV39H2 were evaluated for their target-specific cytotoxicity using A549, HCT-116, HFL1, CCD-18Co and PC14. 100 micro-L of cell suspension was seeded onto 96-well microtiter plate (ViewPlate-96FTC, PerkinElmer). The initial cell concentration of A549, HCT-116, HFL1, CCD-18Co and PC14 were 3,000 cells/well, 2,000 cells/well and 2,500 cells/well, respectively. Cellular growth was determined using Cell Counting Kit-8 (DOJINDO) at 72 hours after the exposure of the candidate inhibitors. IC50 was used as an indicator of the anti-proliferative activity of the inhibitors, and calculated by serial dilution method (0, 1.5625, 3.125, 6.25, 12.5, 25, 50, and 100 micro-M). Accurate IC50 values were calculated as described previously.

CCD-18Co = test: as above; details: Homo sapiens, read-out: IC50 (μM) CCD-18Co
Description: as §1

HCT-116 = test: as above; details: Homo sapiens, read-out: IC50 (μM) HCT-116
Description: as §1

SUV39H2 = SUV39H2 (Homo sapiens (Human), UniProt Q9H5I1); details: read-out: IC50 (μM) Suv 39H2 assay
Sequence of SUV39H2 (Q9H5I1 whole entry): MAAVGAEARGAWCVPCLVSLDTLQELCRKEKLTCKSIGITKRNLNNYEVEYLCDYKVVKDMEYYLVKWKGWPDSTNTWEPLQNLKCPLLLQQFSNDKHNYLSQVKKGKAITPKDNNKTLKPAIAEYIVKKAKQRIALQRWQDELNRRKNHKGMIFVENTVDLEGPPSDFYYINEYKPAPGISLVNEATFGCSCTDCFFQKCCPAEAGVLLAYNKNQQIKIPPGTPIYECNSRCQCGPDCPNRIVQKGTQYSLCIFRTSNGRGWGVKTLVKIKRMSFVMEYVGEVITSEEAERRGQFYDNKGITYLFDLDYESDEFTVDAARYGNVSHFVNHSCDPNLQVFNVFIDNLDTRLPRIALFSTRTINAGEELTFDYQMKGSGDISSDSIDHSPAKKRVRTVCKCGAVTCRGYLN

[1] = A549 cells, Cell Counting Kit-8, 72 hours
[2] = HFL1 cells, Cell Counting Kit-8, 72 hours
[3] = CCD-18Co cells, Cell Counting Kit-8, 72 hours
[4] = HCT-116 cells, Cell Counting Kit-8, 72 hours

Structure (SMILES)	IC50 (A549; [1])	IC50 (HFL1; [2])	IC50 (CCD-18Co; [3])	IC50 (HCT-116; [4])	IC50 (SUV39H2; enzyme assay)	IC50 (A549; A549, 72 h)	IC50 (HFL1; HFL1, 72 h)	IC50 (CCD-18Co; CCD-18Co, 72 h)	IC50 (HCT-116; HCT-116, 72 h)	IC50 (SUV39H2)
COC(=O)NCCNc1cn2cc(-c3cc(Cl)c(OC)cc3OC)nc2cc1OC [Example 91, methyl (2-((2-(5-chloro-2,4-dimethoxyphenyl)-7-methoxyimidazo[1,2-a]-pyridin-6-yl)amino)ethyl)carbamate]	3.1 µM	2.9 µM	4.7 µM	2.2 µM	0.0263 µM					
COc1cc(OC)c(-c2cn3ccc(N4CCN(CCO)CC4)nc3n2)cc1Cl [Example 45, 2-(4-(2-(5-chloro-2,4-dimethoxyphenyl)imidazo[1,2-a]pyrimidin-7-yl)-piperazin-1-yl)ethanol]	18 µM	17 µM	21 µM	12 µM	0.0365 µM					
COc1cc(OC)c(-c2cn3ccc(N4CCN(CCN)CC4)cc3n2)cc1Cl [Example 29, 2-(4-(2-(5-chloro-2,4-dimethoxyphenyl)imidazo[1,2-a]pyridin-7-yl)piperazin-1-yl)ethanamine trihydrochloride]						7 µM	4.5 µM	12 µM	9.7 µM	0.012 µM
COc1cc(OC)c(-c2cn3ccc(C4=CCNCC4)cc3n2)cc1Cl [Example 52, 2-(5-chloro-2,4-dimethoxyphenyl)-7-(1,2,3,6-tetrahydropyridin-4-yl)imidazo[1,2-a]pyridine]	1.5 µM	1.6 µM	1.3 µM	1.4 µM	0.0616 µM					
COc1cc(OC)c(-c2cn3ccc(N4CCC(NC(=O)CCNC(=O)OC(C)(C)C)C4)nc3n2)cc1Br (stereo not drawn) [Example 65]	28 µM	27 µM	26 µM	17 µM	0.014 µM					
COc1cc(OC)c(-c2cn3ccc(NCCNC(=O)OC(C)(C)C)nc3n2)cc1Br [Example 18, tert-butyl (2-((2-(5-bromo-2,4-dimethoxyphenyl)imidazo[1,2-a]pyrimidin-7-yl)amino)ethyl)carbamate]	14 µM	11 µM	12 µM	13 µM	0.0884 µM					
COc1cc(OC(C)C)c(-c2cn3ccc(N4CCCC4)cc3n2)cc1Br [Example 53, hydrobromide]	2.5 µM	1.9 µM	2.1 µM	2.4 µM	0.0181 µM					
COc1cc(OC)c(-c2cn3ccc(N4CCN(CCC#N)CC4)cc3n2)cc1Cl [Example 108, 3-(4-(2-(5-chloro-2,4-dimethoxyphenyl)imidazo[1,2-a]pyridin-7-yl)piperazin-1-yl)propanenitrile]	6.3 µM	3 µM	5.9 µM	10 µM	0.0142 µM					
COc1cc(OC)c(-c2cn3ccc(N(C)CCNC(=O)OC(C)(C)C)cc3n2)cc1Cl [Example 48, tert-butyl (2-((2-(5-chloro-2,4-dimethoxyphenyl)imidazo[1,2-a]pyridine-7-yl)(methyl)aimno)ethyl)carbamate]	8.2 µM	3.8 µM	6.4 µM	7.3 µM	0.0124 µM					
COc1cc(OC)c(-c2cn3ccc(N4CC[C@@H](NC(=O)OC(C)(C)C)C4)nc3n2)cc1Cl [Example 57, (R)-tert-Butyl (1-(2-(5-chloro-2,4-dimethoxyphenyl)imidazo[1,2-a]pyrimidin-7-yl)-pyrrolidin-3-yl)carbamate]	7.1 µM	4 µM	4.8 µM	7.2 µM	0.0108 µM					
COc1cc(OC)c(-c2cn3ccc(N4CC[C@H](N)C4)nc3n2)cc1Cl [Example 58, (S)-1-(2-(5-chloro-2,4-dimethoxyphenyl)imidazo[1,2-a]pyrimidin-7-yl)-pyrrolidin-3-amine hydrochloride]						14 µM	6.2 µM	13 µM	9.4 µM	0.0296 µM
COc1cc(OC)c(-c2cn3ccc(N)nc3n2)cc1Cl [Example 8, 2-(5-chloro-2,4-dimethoxyphenyl)imidazo[1,2-a]pyrimidin-7-amine]	17 µM	21 µM	19 µM	16 µM	0.0182 µM					
COc1cc(OCC2CC2)c(-c2cn3ccc(N4CCOCC4)cc3n2)cc1Cl [Example 84, 4-(2-(5-chloro-2-(cyclopropylmethoxy)-4-methoxyphenyl)imidazo-[1,2-a]pyridin-7-yl)morpholine]	4.6 µM	3.2 µM	4.3 µM	3.8 µM	0.0138 µM					
COc1cc(OC(C)C)c(-c2cn3ccc(N4CC[C@H](N)C4)cc3n2)cc1Br [Example 59, (S)-1-(2-(5-bromo-2-isopropoxy-4-methoxyphenyl)imidazo[1,2-a]pyridin-7-yl)pyrrolidin-3-amine hydrochloride]						3.4 µM	1.8 µM	3.7 µM	2.6 µM	0.0112 µM
COc1cc(OC)c(-c2cn3ccc(N4CCC(N)C4)nc3n2)cc1Br (stereo not drawn) [Example 19, hydrochloride]						11 µM	4.2 µM	16 µM	7.9 µM	0.0292 µM
COc1cc(OC)c(-c2cn3ccc(N4CCC(N)C4)cc3n2)cc1C#N (stereo not drawn) [Example 73, 5-[7-(3-aminopyrrolidin-1-yl)imidazo[1,2-a]pyridin-2-yl]-2,4-dimethoxybenzonitrile]	2.3 µM	1.5 µM	5.6 µM	1.5 µM	0.0112 µM					
COc1cc(OC)c(-c2cn3ccc(N4CCC(N)C4)nc3n2)cc1Cl (stereo not drawn) [Example 34, 1-(2-(5-chloro-2,4-dimethoxyphenyl)imidazo[1,2-a]pyrimidin-7-yl)pyrrolidin-3-amine hydrochloride]						12 µM	4.4 µM	11 µM	9.6 µM	0.0273 µM
COc1cc(OC)c(-c2cn3ccc(N4CCC(CN)CC4)cc3n2)cc1Cl [Example 16, (1-(2-(5-Chloro-2,4-dimethoxyphenyl)imidazo[1,2-a]pyridin-7-yl)piperidin-4-yl)-methanamine hydrochloride]						8.8 µM	11 µM	14 µM	8.7 µM	0.0122 µM
COCCCN1CC=C(c2ccn3cc(-c4cc(Cl)c(OC)cc4OC)nc3c2)CC1 [Example 116, 2-(5-Chloro-2,4-dimethoxyphenyl)-7-(1-(3-methoxypropyl)-1,2,3,6-tetrahydropyridin-4-yl)imidazo[1,2-a]pyridine]	6.1 µM	6.6 µM	11 µM	7 µM	0.0738 µM					
COc1cc(OC)c(-c2cn3ccc(N4CCCCC4)cc3n2)cc1Cl [Example 25, 2-(5-chloro-2,4-dimethoxyphenyl)-7-(piperidin-1-yl)imidazo)[1,2-a]pyridine hydrobromide]	3 µM	1.4 µM	2.3 µM	2 µM	0.0122 µM					
COc1cc(OC)c(-c2cn3cc(N4CCC(N)CC4)ccc3n2)cc1Cl [Example 121, 1-(2-(5-chloro-2,4-dimethoxyphenyl)imidazo[1,2-a]pyridin-6-yl)piperidin-4-amine]	8.1 µM	6.8 µM	6.8 µM	18 µM	0.0514 µM					
